Results published in patent US20260042755A1, “GPR6 INVERSE AGONISTS” (MapLight Therapeutics, Inc., priority 2022, published 2026).
pIC50: −log10 of the molar value.

Legend:
GPR3 = target: T1, GPR3 (Homo sapiens, UniProt P46089); assay: GPR3 antagonist functional cAMP assay (LANCE Ultra cAMP TR-FRET, CHO cells stably expressing GPR3); format: cell-based; settings: CHO cells stably expressing GPR3, cAMP assay
T1 construct: expressed in transfected cells; host or cells: CHO cells
Method in brief: (§1)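 cAMP quantified by TR-FRET immunoassay after 45 min compound treatment at 37° C of CHO cells stably expressing GPR3 or GPR6, in PDE-inhibitor (Ro 20-1724, 150 μM) buffer with 0.1% BSA. Data scaled between DMSO (0%) and reference compounds (100%); antagonist IC50 by 4-parameter logistic fit.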

GPR6 = target: T2, GPR6 (Homo sapiens, UniProt P46095); assay: GPR6 antagonist functional cAMP assay (LANCE Ultra cAMP TR-FRET, CHO cells stably expressing GPR6); format: cell-based; settings: CHO cells stably expressing GPR6, cAMP assay
T2 construct: expressed in transfected cells; host or cells: CHO cells
Method in brief: as §1

T1 sequence (P46089 whole entry, species assumed): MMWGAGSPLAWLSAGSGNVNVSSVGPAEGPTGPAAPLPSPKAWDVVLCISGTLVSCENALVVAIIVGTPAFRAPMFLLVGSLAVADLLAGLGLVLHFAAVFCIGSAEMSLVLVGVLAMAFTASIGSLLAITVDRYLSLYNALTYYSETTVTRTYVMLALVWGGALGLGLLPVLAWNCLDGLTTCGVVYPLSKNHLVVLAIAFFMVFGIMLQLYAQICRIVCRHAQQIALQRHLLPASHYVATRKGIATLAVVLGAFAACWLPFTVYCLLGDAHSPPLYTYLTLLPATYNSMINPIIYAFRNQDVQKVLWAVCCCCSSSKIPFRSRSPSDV
T2 sequence (P46095 whole entry): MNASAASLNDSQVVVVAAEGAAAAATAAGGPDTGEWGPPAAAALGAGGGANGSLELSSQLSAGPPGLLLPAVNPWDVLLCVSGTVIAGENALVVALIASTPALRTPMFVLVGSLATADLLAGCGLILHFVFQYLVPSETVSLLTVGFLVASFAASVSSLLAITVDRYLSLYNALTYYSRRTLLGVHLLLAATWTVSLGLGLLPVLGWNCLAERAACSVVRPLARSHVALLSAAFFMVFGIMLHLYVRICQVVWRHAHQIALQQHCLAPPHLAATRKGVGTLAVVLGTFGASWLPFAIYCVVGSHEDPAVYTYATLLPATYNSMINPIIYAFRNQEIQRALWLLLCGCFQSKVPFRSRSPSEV

| SMILES | pIC50 (GPR3) | pIC50 (GPR6) |
| --- | --- | --- |
| CCn1cc(-c2nc3c(nc2N2CCC(Oc4ccc(F)cc4F)CC2)CCN(C(=O)C(C)(O)CO)C3)cn1 (stereo not shown) [Compound 519, 1-{2-[4-(2,4-difluorophenoxy)-1-piperidyl]-3-(1-ethyl-4-pyrazolyl)-5,6,7,8-tetrahydro-1,4,6-triaza-6-naphthyl}-2,3-dihydroxy-2-methyl-1-propanone] | 4.52 to 6.00 | 6.00 to 7.00 |
| COC1CCC(c2nc3c(nc2N2CCC(Oc4ccc(F)cc4F)CC2)CCN(C(=O)CO)C3)CC1 (stereo not shown) [Compound 520, 1-{2-[4-(2,4-difluorophenoxy)-1-piperidyl]-3-(4-methoxycyclohexyl)-5,6,7,8-tetrahydro-1,4,6-triaza-6-naphthyl}-2-hydroxy-1-ethanone] | 4.52 to 6.00 | 4.52 to 6.00 |
| CCn1cc(-c2nc3c(nc2N2CCC(Oc4ccc(F)cc4F)CC2)CCN(C(=O)C(O)C(C)(C)O)C3)cn1 (stereo not shown) [Compound 521, 1-{2-[4-(2,4-difluorophenoxy)-1-piperidyl]-3-(1-ethyl-4-pyrazolyl)-5,6,7,8-tetrahydro-1,4,6-triaza-6-naphthyl}-2,3-dihydroxy-3-methyl-1-butanone] | 4.52 to 6.00 | 6.00 to 7.00 |
| CC(=O)N1CCc2nc(N3CCC(Cn4ccccc4=O)CC3)c(-c3cnn(C)c3)nc2C1 [Compound 522, 1-({1-[6-acetyl-3-(1-methyl-4-pyrazolyl)-5,6,7,8-tetrahydro-1,4,6-triaza-2-naphthyl]-4-piperidyl}methyl)-2(1H)-pyridinone] | 4.52 to 6.00 | 4.52 to 6.00 |
| CC(=O)N1CCc2nc(N3CCN(C(O)c4cocn4)CC3)c(-c3cnn(C)c3)nc2C1 (stereo not shown) [Compound 523, 1-(2-{4-[hydroxy(1,3-oxazol-4-yl)methyl]-1-piperazinyl}-3-(1-methyl-4-pyrazolyl)-5,6,7,8-tetrahydro-1,4,6-triaza-6-naphthyl)-1-ethanone] | ≤ 4.52 | ≤ 4.52 |
| CC(=O)N1CCc2nc(N3CCN(Cc4ccn[nH]4)CC3)c(-c3cnn(C)c3)nc2C1 [Compound 524, 1-[3-(1-methyl-4-pyrazolyl)-2-{4-[(5-pyrazolyl)methyl]-1-piperazinyl}-5,6,7,8-tetrahydro-1,4,6-triaza-6-naphthyl]-1-ethanone] | ≤ 4.52 | ≤ 4.52 |
| CC(=O)N1CCc2nc(N3CCN(Cc4ccnn4C)CC3)c(-c3cnn(C)c3)nc2C1 [Compound 525, 1-[3-(1-methyl-4-pyrazolyl)-2-{4-[(1-methyl-5-pyrazolyl)methyl]-1-piperazinyl}-5,6,7,8-tetrahydro-1,4,6-triaza-6-naphthyl]-1-ethanone] | ≤ 4.52 | ≤ 4.52 |
| CC(=O)N1CCc2nc(N3CCN(Cc4cnn(C)c4)CC3)c(-c3cnn(C)c3)nc2C1 [Compound 526, 1-[3-(1-methyl-4-pyrazolyl)-2-{4-[(1-methyl-4-pyrazolyl)methyl]-1-piperazinyl}-5,6,7,8-tetrahydro-1,4,6-triaza-6-naphthyl]-1-ethanone] | 6.00 to 7.00 | ≤ 4.52 |
| CC(=O)N1CCc2nc(N3CCN(Cc4cn(C)cn4)CC3)c(-c3cnn(C)c3)nc2C1 [Compound 528, 1-(2-{4-[(1-methyl-4-imidazolyl)methyl]-1-piperazinyl}-3-(1-methyl-4-pyrazolyl)-5,6,7,8-tetrahydro-1,4,6-triaza-6-naphthyl)-1-ethanone] | ≤ 4.52 | ≤ 4.52 |
| CC(=O)N1CCc2nc(N3CCN(Cc4ccoc4)CC3)c(-c3cnn(C)c3)nc2C1 [Compound 529, 1-(2-{4-[(3-furyl)methyl]-1-piperazinyl}-3-(1-methyl-4-pyrazolyl)-5,6,7,8-tetrahydro-1,4,6-triaza-6-naphthyl)-1-ethanone] | ≤ 4.52 | 4.52 to 6.00 |
| CC(=O)N1CCc2nc(N3CCN(Cc4cccc(=O)[nH]4)CC3)c(-c3cnn(C)c3)nc2C1 [Compound 530, 6-({4-[6-acetyl-3-(1-methyl-4-pyrazolyl)-5,6,7,8-tetrahydro-1,4,6-triaza-2-naphthyl]-1-piperazinyl}methyl)-2(1H)-pyridinone] | ≤ 4.52 | ≤ 4.52 |
